{"source": "patent US20210177743A1", "about": "“Self-Assembling Multi-Domain Peptide Based Hydrogels” (New Jersey Institute of Technology, priority 2018, published 2021)", "origin": "cited, not measured here", "tested_on": "hepatocytes with low LDL receptors due to PCSK9"}
{"sequence": "TVFTSWEEYLDWV [Pep2-8]", "values": [{"measurement": "LDL receptors on the cell surface", "value": "restore the receptors to the cell surface"}]}
